{"source": "patent US9320773B2", "about": "“Compounds and therapeutic applications related to inhibition of dendritic cell immunoreceptor (DCIR) activity and signaling events” (priority 2010, dated 2016)", "key": {"[1]": {"system": "DCIR expression in CD4+ T cells", "test": "DCIR expression in CD4+ T cells after H2O2 or other apoptosis inducers (flow cytometry)", "type": "cell-based, human", "procedure": "Next, DCIR expression was assessed by flow cytometry. Data shown represent the ratio of DCIR expression over basal expression. The ratio is calculated from the means±SD of triplicate samples from three independent experiments. […] FIG. 16A: […] Expression of DCIR is shown as a dotted line, whereas the continuous line represents staining obtained with an isotype-matched irrelevant control Ab. Data shown correspond to a single experiment representative of 3 independent experiments. FIG. 16B: […] Thereafter, DCIR surface expression and caspase activation were monitored by flow cytometric analysis using a double-staining method consisting of FITC-VAD-FMK followed by the R-PE-conjugated anti-DCIR. Data shown correspond to a single experiment representative of 4 independent experiments. Cell surface expression of DCIR was monitored by flow cytometric analysis (Epics ELITE ESP, Coulter Electronics, Burlington, Canada). […] After washing, the cells were incubated with PE-labeled anti-DCIR (0.25 μg) for 45 min at 4° C. and then washed twice with PBS and 0.5% BSA. Non-specific staining was determined by using an isotype-matched irrelevant control antibody. After two final washes with PBS, cells were fixed in 2% paraformaldehyde for 30 min and analyzed."}, "CD4+ T cells": {"system": "CD4+ T cells", "test": "Cell toxicity / viability of CD4+ T cells", "type": "cell-based, human", "conditions": "mitogen-stimulated CD4+ T cells; data not shown"}, "[2]": {"system": "HIV-1 NL4-3 in CD4+ T cells", "procedure": "Target CD4^+ T cells (1×10^6) were treated for 16 h with H2O2 (30 μM) to induce surface expression of DCIR. FIG. 17A: Cells were next exposed to NL4-3 (100 ng of p24) for 1 h at 37° C., extensively washed to remove unabsorbed virons before assessing the p24 content. FIG. 17B: Cells were first incubated with NL4-3 (100 ng of p24) for 2 h at 37° C., washed extensively to remove input virus and cultured in complete culture RPMI-1640 medium supplemented with rhIL-2 for the indicated number of days. Cell-free supernatants were collected and assayed for the p24 content. FIG. 17C: Cells were exposed to NL4-3 (100 ng of p24) for 2 h at 37° C., next washed extensively to remove input virus, and finally co-cultured with autologous CD4^+ T cells in complete culture RPMI-1640 medium supplemented with rhIL-2 for the indicated number of days. Cell-free supernatants were collected and assayed for the p24 content. Virus production at day 2 is depicted in the small inserts (FIGS. 17B and C). FIG. 17D: Cells were exposed to NL4-3 (100 ng of p24) for 2 h at 37° C., washed extensively to remove input virus, and maintained in complete culture medium supplemented with rhIL-2 for 3 days. Next, DCIR-negative and -positive cells (used as transmitter cells) were isolated with magnetic beads and co-cultured with uninfected CD4^+ T cells (used as recipient cells). […]"}, "CD4": {"system": "CD4", "conditions": "induction of apoptosis by H2O2; data not shown"}, "DC-SIGN": {"system": "DC-SIGN", "conditions": "induction of apoptosis by H2O2; data not shown"}, "[3]": {"system": "HIV-1 NL4-3 in Raji-CD4 cells", "test": "HIV-1 binding/entry assay in parental Raji-CD4 cells (DCIR-negative)", "type": "cell-based", "conditions": "pretreated with inhibitor 10 min, result in words", "procedure": "FIG. 2A: Raji-CD4 and Raji-CD4-DCIR cells were either left untreated or treated with SSG (100 μg/ml) for 10 min at 37° C. Thereafter, cells were pulsed with NL4-3 for 60 min. After three washes with PBS to remove non-adsorbed virus, cell-associated virus was quantified by measuring the p24 content. Data shown correspond to the means±SD of triplicate samples from three combined independent experiments. The asterisk denotes statistically significant data (*, P<0.05; **, P<0.01). FIG. 2B: Cells were either left untransfected or transfected with a sense or antisense oligonucleotide specific for the signalling protein of interest. Next, cells were pulsed with NL4-3 for 60 min. After three washes with PBS to eliminate unbound virus, cell-associated virus was quantified by measuring the p24 content. Data shown correspond to the means±SD of triplicate samples from three combined independent experiments. The asterisk denotes statistically significant data (*, P<0.05; **, P<0.01). […]\nWhere indicated, parental Raji-CD4 cells (DCIR-negative) or Raji-CD4-DCIR transfectants (1×10^6) were pretreated with the indicated amount of a pharmacological inhibitor for 10 min or transfected with sense or antisense oligonucleotides as described below. […] To assess binding/entry, the p24 content was determined by our in-house ELISA assay^33."}, "[4]": {"system": "HIV-1 NL4-3 in Raji-CD4-DCIR cells", "test": "HIV-1 binding/entry assay in Raji-CD4-DCIR cells (cell-associated p24 ELISA)", "type": "cell-based", "conditions": "cells pretreated with inhibitor 10 min, pulsed with NL4-3 60 min; result in words", "procedure": "FIG. 2A: Raji-CD4 and Raji-CD4-DCIR cells were either left untreated or treated with SSG (100 μg/ml) for 10 min at 37° C. Thereafter, cells were pulsed with NL4-3 for 60 min. After three washes with PBS to remove non-adsorbed virus, cell-associated virus was quantified by measuring the p24 content. Data shown correspond to the means±SD of triplicate samples from three combined independent experiments. The asterisk denotes statistically significant data (*, P<0.05; **, P<0.01). FIG. 2B: Cells were either left untransfected or transfected with a sense or antisense oligonucleotide specific for the signalling protein of interest. Next, cells were pulsed with NL4-3 for 60 min. After three washes with PBS to eliminate unbound virus, cell-associated virus was quantified by measuring the p24 content. Data shown correspond to the means±SD of triplicate samples from three combined independent experiments. The asterisk denotes statistically significant data (*, P<0.05; **, P<0.01). After gene silencing, the diminution of the targeted protein was verified by western blots, provided as an insert for each graph.\nWhere indicated, parental Raji-CD4 cells (DCIR-negative) or Raji-CD4-DCIR transfectants (1×10^6) were pretreated with the indicated amount of a pharmacological inhibitor for 10 min or transfected with sense or antisense oligonucleotides as described below. Cells were then pulsed with NL4-3 (100 ng of p24) for 60 min at 37° C. Next the virus-cell mixture was washed 3 times with PBS to remove unbound virus and resuspended in PBS containing 1% BSA. To assess binding/entry, the p24 content was determined by our in-house ELISA assay^33.\nRaji-CD4 and Raji-CD4-DCIR cells (1×10^6 cells) were washed with OptiMEM (Invitrogen Life Technologies) without serum and antibiotics. The phosphorothioate oligodeoxynucleotides (Listed in Table 1) (Invitrogen Life Technologies) were transfected at a final concentration of 10 μM/well^35 using Oligofectamine according to the manufacturer's instructions (Invitrogen Life Technologies). Silencing efficiency was monitored by western blot analysis."}, "[5]": {"system": "DCIR expression in CD4+ T cells", "test": "HIV-1-mediated induction of DCIR expression in CD4+ T cells (flow cytometry)", "type": "cell-based, human", "conditions": "cells pre-treated before virus infection, 3 days; result in words", "procedure": "Mitogen-activated CD4^+ T cells (1×10^6) were first either left untreated or treated for 1 h with the caspase inhibitor Z-VAD-FMK (50 nM), after which HIV-1 was added (100 ng of p24), where indicated. DCIR expression was monitored 3 days later by flow cytometry. Data shown represent the means±SD of triplicate samples from three independent experiments.\nCells (1×10^6) were first either left untreated or treated for 1 h with NAC, after which HIV-1 (100 ng of p24) was added. DCIR expression was monitored 3 days later by flow cytometry. Expression of DCIR is shown as a dotted line, whereas the continuous line represents staining obtained with an isotype-matched irrelevant control Ab. Data shown correspond to a single experiment representative of 3 independent experiments.\nCell surface expression of DCIR was monitored by flow cytometric analysis (Epics ELITE ESP, Coulter Electronics, Burlington, Canada). Cells (1×10^6 cells) were incubated for 30 min with a pool of human serum to block the unspecific binding. After washing, the cells were incubated with PE-labeled anti-DCIR (0.25 μg) for 45 min at 4° C. and then washed twice with PBS and 0.5% BSA. Non-specific staining was determined by using an isotype-matched irrelevant control antibody. After two final washes with PBS, cells were fixed in 2% paraformaldehyde for 30 min and analyzed."}, "[6]": {"system": "human primary CD4+ T cells", "test": "Apoptosis of HIV-1-infected and bystander CD4+ T cells (FITC-VAD-FMK staining)", "type": "cell-based", "conditions": "NL4-3-IRES-HSA infected CD4+ T cells; data not shown", "description": "The HIV-1-mediated induction of apoptosis in both infected and bystander CD4^+ T cells is a well-described phenomenon. The peak of apoptosis is observed usually after 2 to 3 days, the same time frame in which we detected the HIV-1-dependent induction of DCIR. Therefore, we next assessed whether there might be a connection between the virus-induced DCIR expression and apoptosis. We initially assessed the ability of NL4-3-IRES-HSA reporter virus to drive apoptosis in CD4^+ T cells using FITC-VAD-FMK staining. This fluorochrome-labeled pan-caspase inhibitor is a specific and convenient-to-use marker of apoptotic cells, which can identify very early events of apoptosis associated with caspase activation (i.e. pre-apoptotic cells). Our studies indicate that NL4-3-IRES-HSA virions can potently mediate apoptosis in human primary CD4^+ T cells (data not shown). […] To establish a link between DCIR expression and apoptosis following HIV-1 infection, we carried out a series of investigations with the broad-spectrum caspase inhibitor Z-VAD-FMK [94]."}}, "data": [{"molecule": "OO", "note": "[H2O2, Hydrogen peroxide]", "values": [{"measurement": "DCIR expression", "setting": "[1]; CD4+ T cells treated with inducer, H2O2 20 to 60 μM, result in words", "result": "dose-dependent increased"}, {"measurement": "DCIR expression in activated CD4+ T cells", "setting": "[1]; H2O2-treated cells (30 μM, 16 h), n=3", "result": "21.4±3.4", "unit": "%"}, {"measurement": "apoptotic cells also positive for DCIR", "setting": "[1]; H2O2 treatment, FITC-VAD-FMK and anti-DCIR double staining, n=3", "result": "12.2±3.2", "unit": "%"}, {"measurement": "doses at which cell viability was reduced", "setting": "CD4+ T cells", "result": "≥ 45", "unit": "µM"}, {"measurement": "virus production", "setting": "[2]", "result": "statistically significant increase"}, {"measurement": "virus binding and entry, p24", "setting": "[2]; CD4+ T cells exposed to H2O2 (30 μM, 16 h), 3.8±0.8 without H2O2", "result": "12.5±1.8 ng/ml of p24"}, {"measurement": "surface expression of CD4", "setting": "CD4", "result": "not modulated"}, {"measurement": "surface expression of DC-SIGN", "setting": "DC-SIGN", "result": "not modulated"}]}, {"molecule": "O.O.O.O.O.O.O.O.O.O=C([O-])[C@@H]1[O][Sb]2([O-])([O][Sb]34([OH])[O][C@H]([C@H](O)CO)[C@H]([O]3)[C@H](C(=O)[O-])[O]4)[O][C@H]([C@H](O)CO)[C@@H]1[O]2.[Na+].[Na+].[Na+]", "note": "[SSG, sodium stibogluconate]", "values": [{"measurement": "HIV-1 binding/entry", "setting": "[3]", "result": "no similar effect"}, {"measurement": "HIV-1 binding/entry", "setting": "[4]", "result": "decreases"}]}, {"molecule": "O=C1Nc2ccc(Cl)cc2[C@@](C#CC2CC2)(C(F)(F)F)O1", "note": "[EFV, efavirenz]", "values": [{"measurement": "HIV-1-mediated DCIR expression", "setting": "[5]", "result": "reduced significantly"}, {"measurement": "percentages of apoptotic cells in virus-infected and bystander cells", "setting": "[6]", "result": "significantly reduced"}]}]}
